Here are results for three compounds from US10975091B2, “Pyridine derivative” (Astellas Pharma Inc., priority 2014, dated 2021).

The data set relates to continuously hydrated rats. As to the kind of experiment: Antidiuresis test in continuously hydrated rats with additional water loading (oral administration). The format is in vivo, rat. The conditions noted are these: for urine production after additional water loads: groups with additional water loads (15 mL/kg at two and three hours after administration); for urine production after additional water loads / urine production: FIG. 1; for urine production: groups without additional water loads, two hours after administration, maintained until four hours; for change in plasma sodium level (in words): three hours and four hours after administration, additional water loads. As to the method:
Male Wistar rats were used in the test. Initially, water load with 15 mL/kg of distilled water was forcedly administered to the rats. Every 30 minutes after loading water, urine volume collected during 30 minutes was measured and distilled water was forcedly administered to the rats in an amount equal to the urine volume excreted during the last 30 minutes. This water load procedure was repeated to the termination of the test to maintain the diuretic state. […] The individual groups were further divided into two subgroups, and additional distilled water of 15 mL/kg load was forcedly administered to one of the subgroups two times, i.e. at two hours and three hours after the administration. For comparison, the Vehicle group administered only with the vehicle was also subjected to the additional administrations of water load. Blood was collected from a half of the rats in each group subjected to additional administrations of water load, at three hours after the administration (immediately before the second additional water load) and from the other half at four hours after the administration, and plasma sodium levels were measured with an automatic electrolyte analyzer to determine the plasma sodium levels at three hours and four hours after the administration, respectively (each group consisted of seven to eight rats). Changes in the urine volume in individual groups are shown in FIG. 1, and the plasma sodium levels of the group administered with additional water loads are shown in Table 4.

Regarding `NC(=O)CC[C@@H]1NC(=O)[C@H](Cc2ccccc2)NC(=O)[C@H](Cc2ccc(O)cc2)NC(=O)CCSSC[C@@H](C(=O)N2CCC[C@H]2C(=O)N[C@H](CCCN=C(N)N)C(=O)NCC(N)=O)NC(=O)[C@H](CC(N)=O)NC1=O` [dDAVP, Desmopressin, reference compound], the “urine production after additional water loads” value was “urine production was not resumed”, the urine production entry is recorded as “almost stopped” and the “change in plasma sodium level (in words)” value is “more significant decreases”.
The matching figures for `CCSC[C@H](N)[C@](O)(Cc1cc(O[C@H]2CC[C@H](C)CC2)ccn1)C(=O)O` [EX-b, (2R,3R)-3-amino-4-(ethylsulfanyl)-2-hydroxy-2-({4-[(trans-4-methylcyclohexyl)oxy]pyridin-2-yl}methyl)butanoic acid]: “resumed after administration of the additional water loads”, “almost stopped” and “slightly decreased”.
Taken in the same sequence, the figures for `CC(C)C[C@H](N)[C@](O)(Cc1cc(O[C@H]2CC[C@H](C)CC2)ccn1)C(=O)O` (relative stereo) [EX-a] were “resumed after administration of the additional water loads”, “almost stopped” and “slightly decreased”.
